From US5637582A, “Peripheral circulation improving agent” (priority 1992, dated 1997) come the findings set out here.

The subject of one data set is femoral artery. Description: Femoral arterial blood flow, hind leg cooling model of Raynaud's disease (Experimental Example 5). The format is in vivo, male SD rat. As to the method: (Lower limbs peripheral circulation disorder model due to hind leg cooling: Model of Raynaud's disease)
A catheter was inserted into left common carotid artery of a male SD rat (one group consisting of 5 rats) under anesthesia, and the arterial blood pressure was measured with a standard pressure transducer (manufactured by Nihon Koden. TP-200T, trade name) through a catheter attached to the artery. After isolating the left femoral artery from the peripheral connective tissue, a flow probe (HDP 10-20R: F 1.0 mm) of a Doppler blood flow meter (manufactured by Crystal Biotec Co., PD20, trade name) was attached thereto and was connected to the Doppler blood flow meter to measure the artery blood flow. After the operation, at the time that the state became stable, the left hind leg was exposed to a perfused solution at 10° C. to decrease the femoral arterial blood flow. After 30 minutes, 1 ml/kg of a 0.9% NaCl solution or 300 μg/kg of the test compound A was intravenously administered and the state was observed. In the case of Beraprost Na, continuous injection in an amount of […] was carried out after 30 minutes from cooling. The compounds to be used were each dissolved in a 0.9% NaCl solution.
The present model is disclosed, for example, in Nishio et al, "Effect of Beraprost Sodium on Peripheral Circulatory Disturbances Induced by Various Stimuli", Arzneim.-Forsch./Drug Res., 39 (II), Nr. 10 (1989), pp. 1229-1234. Note particularly the section "2.4. Sphygmometry in rat hind paw", at page 1230.

The next data set deals with arterial blood pressure. Also noted: species or system male SD rat. Particulars: rat, in vivo. The protocol: (Lower limbs peripheral circulation disorder model due to hind leg cooling: Model of Raynaud's disease) […] TP-200T, trade name) through a catheter attached to the artery. […] After the operation, at the time that the state became stable, the left hind leg was exposed to a perfused solution at 10° C. to decrease the femoral arterial blood flow. […] In the case of Beraprost Na, continuous injection in an amount of […] was carried out after 30 minutes from cooling. […] The present model is disclosed, for example, in Nishio et al, "Effect of Beraprost Sodium on Peripheral Circulatory Disturbances Induced by Various Stimuli", Arzneim.-Forsch./Drug Res., 39 (II), Nr. 10 (1989), pp. 1229-1234. Note particularly the section "2.4. Sphygmometry in rat hind paw", at page 1230.

Consider `CC#CCC(C)[C@H](O)/C=C/[C@@H]1[C@H]2c3cccc(CCCC(=O)O)c3O[C@H]2C[C@H]1O` (some centres unmarked) [Compound J, Beraprost Na, reference compound], for which the “Femoral Arterial Blood Flow change” value with femoral artery (0 min (before cooling and administration; 30 min = 0)) is recorded as 1.116 Δ ml/min; in the data set on femoral artery (40 min, given at 30 min: A 300 μg/kg i.v., J 0.3 μg/kg/ml continuous injection), 0.252 Δ ml/min; in the data set with femoral artery (50 min, given at 30 min: A 300 μg/kg i.v., J 0.3 μg/kg/ml continuous injection), 0.304 Δ ml/min; in the data set on femoral artery (60 min, given at 30 min: A 300 μg/kg i.v., J 0.3 μg/kg/ml continuous injection), 0.368 Δ ml/min; in the data set with femoral artery (70 min, given at 30 min: A 300 μg/kg i.v., J 0.3 μg/kg/ml continuous injection), 0.436 Δ ml/min; in the data set with femoral artery (80 min, given at 30 min: A 300 μg/kg i.v., J 0.3 μg/kg/ml continuous injection) it was 0.372 Δ ml/min. Further, in the data set on femoral artery (90 min, given at 30 min: A 300 μg/kg i.v., J 0.3 μg/kg/ml continuous injection), the “Femoral Arterial Blood Flow change” value is listed as 0.344 Δ ml/min. Besides, the “Mean Arterial Pressure change” value in the data set with arterial blood pressure is given as 1.20 Δ mmHg.
